Measurements: US8101411B2, “Method for production of corosolic acid in suspension culture of plant cells” (Samyang Genex Corporation, priority 2005, dated 2012)

Assays:
[1] = tested on: suspension-cultured cells of Eriobotrya japonica; experiment: Addition of inducing agent (elicitor) at the production stage of two-stage high cell-density suspension culture; type: cell-based; conditions: for Cell Dry Weight / Productivity of Corosolic acid / Productivity of Corosolic acid (% DW): 14 days
Description: The cell dry weight was obtained by filtering sampled plant cell culture through Watman no. 4 filter paper using a Buchner funnel, and oven drying at a temperature of 60° C. for 24 hours. […] The % DW (Dry Weight) was calculated from the calculated concentration of corosolic acid. […] The volumetric productivity (mg/L) was calculated by multiplying the calculated % DW content with the cell concentration (g/L, DW) in cell culture. 50 ml of the cell lines which were obtained in EXAMPLE 1-2 were cultured in LS medium with addition of 10 μM of NAA and 1 μM of BA, and collected after 7 days, and 50 ml of 2× concentration of mB5 medium were mixed and cultured in a 250 ml flask. […] The Eriobotrya japonica cells were cultured according to the method of Example 3,except that the concentration of sucrose added to the mB5 medium as the carbon source at the production stage, and the inoculation ratio of Eriobotrya japonica cell were varied as in Table 7. […] In the two-stage culture by using high cell-density culture of Example 4, 6% of sucrose was added to mB5 medium at the production stage, and the inoculated amount was 6 g/L cell dry weight.

[2] = tested on: absorption of glucose into cells; conditions: similar to that of insulin; Chem Pharm. Bull. 41(12): 2129-2131, 1993; cited from earlier work
[3] = cited from earlier work
[4] = Sodium butyrate 1.0 mM, added at 3-day culture
[5] = AgNO3 2 μM, added at 0-day culture
[6] = AgNO3 4 μM, added at 0 day culture
[7] = AgNO3 6 μM, added at 0-day culture
[8] = Methyl jasmonate 400 μM, added at 3-day culture

In the case of `CCCC(=O)[O-].[Na+]` [Sodium butyrate], the “amount of corosolic acid increased by” value ([1]; 1 mM sodium butylate, versus control) is reported as 100%, the “Cell Dry Weight” value [1, 4] is reported as 24.54 g/L and the “Productivity of Corosolic acid” value [1, 4] is reported as 2081.13 mg/L. The “Productivity of Corosolic acid (% DW)” value [1, 4] was 8.48 % DW.
With `O=[N+]([O-])[O-].[Ag+]` [AgNO3, silver nitrate] the “maximal concentration of cell increased by” value ([1]; 4 μM added, versus control) was 45%, the “productivity of the suspension-cultured cell” value ([1]; 2-6 μM added to the culture medium, versus control) was “increased the productivity” and the “Productivity of Corosolic acid” value [1, 5] was 1152.07 mg/L. The “Productivity of Corosolic acid (% DW)” value [1, 5] was 4.42 % DW, the “Cell Dry Weight” value ([1]; AgNO3 2 μM, added at 0-day culture, mB5, 6% sucrose, 6 g/L inoculum) was 26.05 g/L and the “Cell Dry Weight” value [1, 6] was 25.66 g/L. The “Productivity of Corosolic acid” value [1, 6] was 1551.78 mg/L, the “Productivity of Corosolic acid (% DW)” value [1, 6] was 6.05 % DW and the “Cell Dry Weight” value [1, 7] was 24.57 g/L. The “Productivity of Corosolic acid” value [1, 7] was 1335.86 mg/L and the “Productivity of Corosolic acid (% DW)” value [1, 7] was 5.44 % DW.
In the case of corosolic acid, the “activity on absorption of glucose into cells” value [2] is given as “promoting a rapid absorption of glucose into cells”, the “effect on blood-sugar levels” value ([3]; clinical demonstration, Journal of Ethnopharmacology 87: 115 117, 2003) is given as “rawer blood-sugar levels” and the side effects ([3]; in vivo) is given as “without any side effects”.
For `CC/C=C\CC1C(=O)CCC1CC(=O)OC` (stereo not shown) [Methyl jasmonate], the “amount of corosolic acid increased by” value ([1]; 400 μM methyl jasmonate, versus control) was 100%, the “Cell Dry Weight” value [1, 8] was 22.72 g/L and the “Productivity of Corosolic acid” value [1, 8] was 1913.16 mg/L. For the same compound, the “Productivity of Corosolic acid (% DW)” value [1, 8] was 8.42 % DW.
